Assay results published in the supplement of paper PMC10307832.

Key:
Assay in all cases: relative viability (nuclei count vs DMSO), 5 days (fraction); higher = more cells survive
VX-11e + AZD7762 = compound: CC1=CN=C(N=C1C2=CNC(=C2)C(=O)N[C@H](CO)C3=CC(=CC=C3)Cl)NC4=C(C=C(C=C4)F)Cl [VX-11e] + NC(=O)Nc1cc(-c2cccc(F)c2)sc1C(=O)N[C@H]1CCCNC1 [AZD7762] (partner 0.2 µM)
Method in brief: (§1)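 Dosing by pin tool came one day after lung cancer cell lines were seeded in 1536-well plates, using either one drug or a fixed anchor-drug dose plus five library-drug doses (not always all listed) in √10 steps. After 5 days, nuclei were counted on 4× images. Relative viability is treated-well nuclei count divided by vehicle-well nuclei count, and values are medians of duplicate plates.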

VX-11e + Decitabine = compound: CC1=CN=C(N=C1C2=CNC(=C2)C(=O)N[C@H](CO)C3=CC(=CC=C3)Cl)NC4=C(C=C(C=C4)F)Cl [VX-11e] + Nc1ncn([C@H]2C[C@H](O)[C@@H](CO)O2)c(=O)n1 [Decitabine] (partner 2 µM)
Method in brief: as §1

VX-11e + Lapatinib = compound: CC1=CN=C(N=C1C2=CNC(=C2)C(=O)N[C@H](CO)C3=CC(=CC=C3)Cl)NC4=C(C=C(C=C4)F)Cl [VX-11e] + CS(=O)(=O)CCNCc1ccc(-c2ccc3ncnc(Nc4ccc(OCc5cccc(F)c5)c(Cl)c4)c3c2)o1 [Lapatinib] (partner 2 µM)
Method in brief: as §1

VX-11e + Olaparib = compound: CC1=CN=C(N=C1C2=CNC(=C2)C(=O)N[C@H](CO)C3=CC(=CC=C3)Cl)NC4=C(C=C(C=C4)F)Cl [VX-11e] + O=C(c1cc(Cc2n[nH]c(=O)c3ccccc23)ccc1F)N1CCN(C(=O)C2CC2)CC1 [Olaparib] (partner 8 µM)
Method in brief: as §1

Row | Cell Line | relative viability (VX-11e + AZD7762; first compound 0.04 µM) | relative viability (VX-11e + AZD7762; first compound 0.1265 µM) | relative viability (VX-11e + AZD7762; first compound 0.4 µM) | relative viability (VX-11e + AZD7762; first compound 1.265 µM) | relative viability (VX-11e + AZD7762; first compound 4 µM) | relative viability (VX-11e + Decitabine; first compound 0.04 µM) | relative viability (VX-11e + Decitabine; first compound 0.1265 µM) | relative viability (VX-11e + Decitabine; first compound 0.4 µM) | relative viability (VX-11e + Decitabine; first compound 1.265 µM) | relative viability (VX-11e + Decitabine; first compound 4 µM) | relative viability (VX-11e + Lapatinib; first compound 0.04 µM) | relative viability (VX-11e + Lapatinib; first compound 0.1265 µM) | relative viability (VX-11e + Lapatinib; first compound 0.4 µM) | relative viability (VX-11e + Lapatinib; first compound 1.265 µM) | relative viability (VX-11e + Lapatinib; first compound 4 µM) | relative viability (VX-11e + Olaparib; first compound 0.04 µM) | relative viability (VX-11e + Olaparib; first compound 0.1265 µM) | relative viability (VX-11e + Olaparib; first compound 0.4 µM) | relative viability (VX-11e + Olaparib; first compound 1.265 µM) | relative viability (VX-11e + Olaparib; first compound 4 µM)
1 | EKVX | 0.634 | 0.74 | 0.764 | 0.723 | 0.448 | 0.331 | 0.397 | 0.298 | 0.394 | 0.232 | 0.205 | 0.184 | 0.189 | 0.108 | 0.144 | 0.836 | 0.834 | 0.713 | 0.94 | 0.451
2 | EMC-BAC-2 | 1.2 | 0.96 | 1.13 | 1 | 0.855 | 1.02 | 0.958 | 0.653 | 1 | 0.588 | 0.736 | 0.807 | 0.945 | 0.837 | 0.732 | 0.529 | 0.492 | 0.468 | 0.711 | 0.636
3 | EPLC-272H | 0.147 | 0.21 | – | 0.201 | 0.285 | 0.331 | 0.337 | – | 0.29 | 0.178 | 0.844 | 0.577 | 0.714 | 0.739 | 0.48 | 0.771 | 0.833 | 0.588 | 0.38 | 0.219
4 | H3255 | 0.745 | 0.834 | 0.859 | 0.923 | 0.825 | 0.667 | 0.603 | 0.482 | 0.48 | 0.332 | 0.245 | 0.222 | 0.286 | 0.281 | 0.232 | 0.582 | 0.544 | 0.496 | 0.552 | 0.497
5 | HARA | 0.575 | 0.391 | 0.258 | 0.281 | 0.306 | 0.491 | 0.417 | 0.38 | 0.365 | 0.467 | 0.673 | 0.653 | 0.79 | 0.666 | 0.374 | 0.893 | 0.705 | 0.939 | 0.295 | 0.525
6 | HCC-15 | 1.41 | 1.18 | – | 1.11 | 0.769 | 0.641 | 0.603 | 0.225 | 0.338 | 0.274 | 0.949 | 0.849 | 0.38 | 0.565 | 0.288 | 0.869 | 0.794 | – | 0.541 | 0.398
7 | HCC-44 | 1.03 | 0.904 | 1.01 | 1.07 | 1.13 | 0.995 | 0.896 | 0.939 | 0.904 | 1.06 | 0.986 | 0.974 | 0.871 | 0.836 | 0.88 | 1.02 | 0.893 | 0.897 | 1.05 | 0.93
8 | HCC-78 | 0.58 | 0.814 | 0.725 | 0.371 | 0.527 | 0.721 | 0.698 | 0.676 | 0.775 | 0.786 | 1.37 | 0.884 | 0.944 | 0.384 | 0.526 | 0.852 | 0.639 | 0.834 | 0.963 | 0.754
